Measured values taken from ChEMBL document CHEMBL5532675, “Discovery of 4-Ethoxy-6-chloro-5-azaindazoles as Novel PDE4 Inhibitors for the Treatment of Alcohol Use Disorder and Alcoholic Liver Diseases” (J Med Chem, 2024).

Tests used:
[1] = target: T1, 3',5'-cyclic-AMP phosphodiesterase 4D (Homo sapiens, UniProt Q08499); assay: Inhibition of PDE4D7 (unknown origin) using FAM-cyclic-3',5'-AMP as substrate at 100 nM incubated for 1 hrs by fluorescence polarization based IMAP assay relative to control
T1 sequence (Q08499 whole entry): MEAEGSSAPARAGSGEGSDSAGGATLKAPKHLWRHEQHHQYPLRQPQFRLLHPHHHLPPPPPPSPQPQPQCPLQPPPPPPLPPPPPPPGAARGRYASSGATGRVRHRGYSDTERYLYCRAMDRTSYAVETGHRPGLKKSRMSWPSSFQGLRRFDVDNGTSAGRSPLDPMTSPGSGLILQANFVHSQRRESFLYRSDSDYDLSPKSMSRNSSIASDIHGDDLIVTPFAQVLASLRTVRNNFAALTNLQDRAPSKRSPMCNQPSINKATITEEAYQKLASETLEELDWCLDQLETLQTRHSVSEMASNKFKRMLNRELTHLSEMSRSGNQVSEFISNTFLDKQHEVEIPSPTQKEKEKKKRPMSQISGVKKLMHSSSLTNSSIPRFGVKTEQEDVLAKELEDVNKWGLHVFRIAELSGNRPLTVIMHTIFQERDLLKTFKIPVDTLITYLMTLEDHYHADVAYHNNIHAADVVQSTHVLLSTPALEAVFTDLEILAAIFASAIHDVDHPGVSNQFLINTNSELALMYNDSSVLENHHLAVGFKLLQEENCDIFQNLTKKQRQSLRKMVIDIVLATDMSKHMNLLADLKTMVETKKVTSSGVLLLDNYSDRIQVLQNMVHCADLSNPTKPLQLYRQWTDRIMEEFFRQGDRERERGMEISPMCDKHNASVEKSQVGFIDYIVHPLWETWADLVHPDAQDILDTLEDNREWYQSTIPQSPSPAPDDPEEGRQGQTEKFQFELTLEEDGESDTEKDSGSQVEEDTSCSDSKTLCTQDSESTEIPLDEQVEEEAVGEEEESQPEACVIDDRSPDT

[2] = target: T1, 3',5'-cyclic-AMP phosphodiesterase 4D; assay: Inhibition of PDE4D7 (unknown origin) using FAM-cyclic-3',5'-AMP as substrate at 10 nM incubated for 1 hrs by fluorescence polarization based IMAP assay relative to control
[3] = target: T1, 3',5'-cyclic-AMP phosphodiesterase 4D; assay: Inhibition of PDE4D7 (unknown origin) using FAM-cyclic-3',5'-AMP as substrate at 1 microM incubated for 1 hrs by fluorescence polarization based IMAP assay relative to control
[4] = Toxicity in ketamine/xylazine-induced anesthetic C57BL/6J mouse model assessed as emetogenic potential by measuring reduction in anesthesia duration at 0.5 mg/kg, po preadministered with compound for 15 mins followed by ketamine/xylazine administration; type: organism-based; settings: in vivo, 0.25 h
HT-22 = assay: Cytotoxicity against mouse HT-22 cells assessed as reduction in cell viability at 30 uM incubated for 48 hrs by MTT assay; type: toxicity, cell-based; settings: ht-22, 48 h
[5] = target: T1, 3',5'-cyclic-AMP phosphodiesterase 4D; assay: Inhibition of PDE4D7 (unknown origin) using FAM-cyclic-3',5'-AMP as substrate incubated for 1 hrs by fluorescence polarization based IMAP assay
SH-SY5Y = assay: Cytotoxicity against human SH-SY5Y cells assessed as reduction in cell viability at 20 uM incubated for 48 hrs by MTT assay; type: toxicity, cell-based
[6] = Oral bioavailability in Sprague-Dawley rat at 5 mg/kg measured after 24 hrs by LC-MS/MS analysis; type: ADME, organism-based; settings: in vivo
[7] = Chemical stability of compound in aqueous solution at pH <6 measured after 48 hrs; type: physicochemical; settings: buffer
[8] = Chemical stability of compound in aqueous solution at pH >10 measured after 48 hrs; type: physicochemical; settings: buffer

| Structure (SMILES) | inhibition [1] | inhibition [2] | also measured |
| --- | --- | --- | --- |
| CCOc1nc(Cl)cc2c1cnn2-c1ccc(OC)cc1 | 5% |  |  |
| CCOc1nc(C)cc2c1cnn2C1CCOCC1 | 5% |  |  |
| CCOc1nc(Cl)cc2c1cnn2CCCCO | 6% | 5% |  |
| CCOc1nc(Cl)cc2c1cnn2C(C)c1ccc(C(F)(F)F)cc1 (stereo not given) | 14% |  |  |
| CCOc1nc(Cl)cc2c1cnn2Cc1cccnc1 | 5% |  |  |
| FC(F)(F)COc1nc(Cl)cc2c1cnn2C1CCOCC1 | 16% |  | inhibition [3]: 35% |
| CCOc1cc([C@@H](CS(C)(=O)=O)N2C(=O)c3cccc(NC(C)=O)c3C2=O)ccc1OC [APREMILAST] |  |  | Activity [4]: Toxic |
| CCOc1nc(C(C)=O)cc2c1cnn2C1CCOCC1 | 6% |  | inhibition [3]: 9% |
| CCCOc1nc(Cl)cc2c1cnn2C1CCOCC1 | 2% |  | inhibition [3]: 5% |
| CCOc1nc(Cl)cc2c1cnn2CC(=O)NC | 4% | 4% |  |
| CCOc1nc(Cl)cc2c1cnn2C1CCS(=O)(=O)CC1 | 3% |  |  |
| CCOc1nc(Cl)cc2c1cnn2-c1cccc(OC)c1 | 7% |  |  |
| CCOc1nc(Cl)cc2c1cnn2CC(=O)NO | 68% | 41% | Activity (HT-22): Non-Toxic; IC50 [5]: 16.6 nM; Activity (SH-SY5Y): Non-Toxic |
| CCOc1nc(Cl)cc2c1cnn2CC1CCOC1 (stereo not given) | 9% |  |  |
| CC(C)NC(=O)c1ccc(OC(F)F)c(OCC2CC2)c1 |  |  | bioavailability [6]: 1.2% |
| CCOc1nc(Cl)cc2nn(CCC(=O)NO)cc12 | 66% | 25% | IC50 [5]: 38.7 nM |
| O=C(Nc1c(Cl)cncc1Cl)c1ccc(OC(F)F)c(OCC2CC2)c1 [ROFLUMILAST] |  |  | Activity [4]: Toxic |
| CCOc1nc(Cl)cc2nn(CCCCO)cc12 | 3% | 4% |  |
| CCOc1nc(Cl)cc2nn(C3CCOCC3)cc12 | 35% |  |  |
| CNc1nc(Cl)cc2c1cnn2C1CCCC1 | 15% |  | inhibition [3]: 59% |
| CCOc1nc(Cl)cc2c1c(C(F)(F)F)nn2CCCC(=O)O | 53% | 23% |  |
| CCOc1nc(Cl)cc2c1cnn2CC1(C)COC1 | 7% |  |  |
| CCOc1nc(Cl)cc2c1c(-c1cccnc1)nn2CCCC(=O)O | 9% | 4% |  |

| Structure (SMILES) | inhibition [1] | inhibition [2] | also measured |
| --- | --- | --- | --- |
| CCOc1nc(Cl)cc2c1c(C1CC1)nn2CCCC(=O)O | 13% | 8% |  |
| CNc1nc(Cl)cc2c1cnn2C1CCOCC1 | 0% |  | inhibition [3]: 0% |
| CCOc1nc(Cl)cc2nn(CCCO)cc12 | 53% | 21% | Activity (HT-22): Non-Toxic; IC50 [5]: 71.3 nM; Activity (SH-SY5Y): Non-Toxic |
| CCOc1nc(Cl)cc2c1c(Nc1ccccc1)nn2CCCC(=O)O | 9% | 7% |  |
| CCOc1nc(Cl)cc2c1cnn2CCC(=O)NO | 18% | 9% |  |
| CCNc1nc(Cl)cc2c1cnn2C1CCCC1 | 5% |  | inhibition [3]: 28% |
| CCOc1nc(Cl)cc2c1cnn2CC(N)=O | 3% | 3% |  |
| CCOc1nc(Cl)cc2c1c(C)nn2CCCC(=O)O | 11% | 6% |  |
| CCOc1nc(Cl)nc2c1cnn2C1CCOCC1 |  |  | Stability [7]: Unstable; Stability [8]: Unstable |
| CCOc1nc(Cl)cc2nn(CCO)cc12 | 5% | 6% |  |
| CCOc1nc(-c2cccs2)cc2c1cnn2C1CCOCC1 | 4% |  | inhibition [3]: 23% |
| CCOc1nc(Cl)cc2nn(CC(=O)O)cc12 | 7% | 5% |  |
| COc1nc(Cl)cc2c1cnn2C1CCOCC1 | 35% |  | inhibition [3]: 75% |
| CCOc1nc(Cl)cc2nn(CCCC(=O)NO)cc12 | 63% | 18% | IC50 [5]: 51.7 nM |
| Clc1cc2c(cnn2C2CCOCC2)c(OC2CC2)n1 | 4% |  | inhibition [3]: 8% |
| CCOc1nc(Cl)cc2c1cnn2CC#N | 5% | 3% |  |
| CCOc1nc(Cl)cc2c1c(C1CCCCC1)nn2CCCC(=O)O | 11% | 6% |  |
| CCOc1nc(-c2ccccc2)cc2c1cnn2C1CCOCC1 | 14% |  | inhibition [3]: 32% |
| CCOc1nc(Cl)cc2c1cnn2CC(=O)NOC | 6% | 4% |  |
| CCOc1nc(Cl)cc2c1c(NCc1ccccc1)nn2CCCC(=O)O | 18% | 4% |  |
| CCOc1nc(Cl)cc2c1c(CC)nn2CCCC(=O)O | 48% | 15% |  |
| CCOc1nc(Cl)cc2c1c(/C=C/c1ccc(OC)cc1)nn2CCCC(=O)O | 5% | 2% |  |
| CCOc1nc(Cl)cc2c1cnn2CCO | 4% | 3% |  |

| Structure (SMILES) | inhibition [1] | inhibition [2] | also measured |
| --- | --- | --- | --- |
| CCOc1nc(Cl)cc2nn(CC3CCCO3)cc12 (stereo not given) | 10% |  |  |
| CCOc1nccc2c1cnn2C1CCOCC1 | 1% |  |  |
| CCOc1nc(Cl)cc2c1cnn2CCCC(=O)NO | 19% | 5% |  |
| CNc1nc(Cl)cc2nn(C3CCOCC3)cc12 | 17% |  |  |
| CCOc1nc(Cl)cc2c1cnn2CC1CCCO1 (stereo not given) | 4% |  |  |
| CCOc1nc(Cl)cc2c1c(-c1ccc(OC)cc1)nn2CCCC(=O)O | 16% | 7% |  |
| CCOc1nc(Cl)cc2c1c(NCC(C)C)nn2CCCC(=O)O | 27% | 6% |  |
| CCOc1nc(Cl)cc2nn(CC(=O)NO)cc12 | 69% | 36% | Activity (HT-22): Non-Toxic; IC50 [5]: 20.2 nM; Activity (SH-SY5Y): Non-Toxic |
| CCOc1nc(-c2ccsc2)cc2c1cnn2C1CCOCC1 | 3% |  | inhibition [3]: 4% |
| CCOc1nc(Cl)cc2c1cnn2CC(=O)N(C)O | 8% | 5% |  |
| CC(C)Oc1nc(Cl)cc2c1cnn2C1CCOCC1 | 12% |  | inhibition [3]: 30% |
| CCOc1nc(Cl)cc2c1cnn2C1CCOCC1 | 64% |  | IC50 [5]: 92.7 nM; inhibition [3]: 95%; Stability [7]: Stable; Stability [8]: Stable |
| CCOc1nc(C(N)=O)cc2c1cnn2C1CCOCC1 | 6% |  | inhibition [3]: 12% |
| CCOc1nc(Cl)cc2c1cnn2CCCO | 8% | 5% |  |
| CCOc1nc(Cl)cc2c1cnn2CC(=O)O | 3% | 3% |  |
| CCOc1nc(Cl)cc2c1c(-c1cccc(OC)c1)nn2CCCC(=O)O | 6% | 3% |  |
| CCOc1nc(Cl)cc2nn(CCCC(=O)O)cc12 | 8% | 6% |  |
| CCOc1nc(Cl)cc2nn(-c3cccc(OC)c3)cc12 | 8% |  |  |
| CCOc1nc(Cl)cc2c1cnn2CCC(=O)O | 19% | 8% |  |
| CCOc1nc(Cl)cc2c1cnn2C1CCSCC1 | 5% |  |  |
| CCOc1nc(Cl)cc2c1c(-c1ccncc1)nn2CCCC(=O)O | 24% | 5% |  |
| Clc1cc2c(cnn2C2CCOCC2)c(OC2CCCC2)n1 | 5% |  | inhibition [3]: 10% |
| CCOc1nc(C#N)cc2c1cnn2C1CCOCC1 | 32% |  | IC50 [5]: 230 nM; inhibition [3]: 82% |
